The values below are quoted from earlier work in US20050065088A1, “Pharmaceutical compositions and methods comprising combinations of 2-alkylidene-19-nor-vitamin D derivatives and parathyroid hormone” (Pfizer Inc., priority 2003, published 2005).

Structures are written as SMILES.

Series [1] concerns intestinal calcium transport. To be noted: chronic dosing 7 days, 130 or 260 pmol dose (1,25-(OH)2D3 only 260 pmol/day).
The next series relates to HL-60 cells. To be noted: result in words.
For series [2], the system named is serum calcium (bone calcium mobilization). To be noted: for selectivity bone calcium mobilization versus intestinal calcium transport, in words / bone calcium mobilization, result in words: chronic dosing 7 days; for bone calcium mobilization, result in words: 130 and 260 pmol/day.

With `C=C1/C(=C\C=C2/CCC[C@]3(C)[C@@H]([C@H](C)CCCC(C)(C)O)CC[C@@H]23)C[C@@H](O)C[C@@H]1O` [1,25-(OH)2D3, 1,25-dihydroxyvitamin D3, reference compound], the “intestinal calcium transport, result in words” value in series [1] is on record as “expected elevation”.
In the case of `C=C1[C@H](O)CC(=C/C=C2\CCC[C@]3(C)[C@@H]([C@H](C)CCCC(C)(C)O)CC[C@@H]23)C[C@H]1O` [2-Methylene-19-Nor-1,25-(OH)2D3, 1α,25-dihydroxy-2-methylene-19-nor-vitamin D3], the “inducing differentiation of HL-60 cells to the monocyte” value in the series on HL-60 cells is “activity similar to 1,25-(OH)2D3”. The “intestinal calcium transport, result in words” value in series [1] is “no intestinal calcium transport activity”. Further, in series [2], the “selectivity bone calcium mobilization versus intestinal calcium transport, in words” value is “selective for the mobilization of calcium from bone” and the “bone calcium mobilization, result in words” value is “extremely strong bone calcium mobilization”. Further, the “bone calcium mobilization activity relative to 1,25-(OH)2D3” value in series [2] (chronic dosing, 7 days, 'likely to be') is on record as 10-100 times.
As for `C=C1[C@H](O)CC(=C/C=C2\CCC[C@]3(C)[C@@H]([C@@H](C)CCCC(C)(C)O)CC[C@@H]23)C[C@H]1O` [2-Methylene-19-Nor-20S-1,25-(OH)2D3, (20S)-1α,25-dihydroxy-2-methylene-19-nor-vitamin D3], the “inducing differentiation of HL-60 cells to the monocyte” value with HL-60 cells is listed as “extremely potent”. In addition, the “intestinal calcium transport, result in words” value in series [1] was “no significant change”. The “activity on bone calcium mobilization (serum calcium) relative to the native hormone” value in series [2] (130 pmol/day, 7 days, 'at least 10 and possible 100-1,000 times') is “at least 10 times”. In series [2], the “selectivity bone calcium mobilization versus intestinal calcium transport, in words” value is listed as “selective for the mobilization of calcium from bone” and the “bone calcium mobilization, result in words” value is given as “most potent compound tested”.
